Test results published in US9777045B2, “Immunogenic compositions and methods” (Longhorn Vaccines and Diagnostics, LLC, priority 2007, dated 2017).
“And” between values parts separate entries of the source, which are not always exact repeats. Equal values may be shown once. Read-outs that look alike come from different tables or passages of the source.

What was measured:
[1] = system: peptide corresponding to the peptide-BSA conjugate used for injection; test: ELISA for anti-peptide antibodies (individual mouse sera 1:100); assay type: in vivo, mice; details: for Average Absorbance Values of sera for tested peptides, Day 14 / Average Absorbance Values of sera for tested peptides, Day 29 / Average Absorbance Values of sera for tested peptides, Day 42 / Average Absorbance Values of sera for tested peptides, Pre: group average; for Average Absorbance Values of sera for tested peptides, Day 14 / Average Absorbance Values of sera for tested peptides, Day 29 / Average Absorbance Values of sera for tested peptides, Day 42 / Average Absorbance Values of sera for tested peptides, Pre / Individual absorbancy values of sera for tested peptides, Day 14 / Individual absorbancy values of sera for tested peptides, Day 29 / Individual absorbancy values of sera for tested peptides, Day 42: mice; for Average Absorbance Values of sera for tested peptides, Pre / Individual absorbancy values of sera for tested peptides, Pre: pre-bleed; for Individual absorbancy values of sera for tested peptides, Pre: mice injected with peptide-BSA conjugate, absorbance 450 nm; for Individual absorbancy values of sera for tested peptides, Pre / Individual absorbancy values of sera for tested peptides, Day 14 / Individual absorbancy values of sera for tested peptides, Day 29 / Individual absorbancy values of sera for tested peptides, Day 42: sera 1:100
Method: Individual sera were tested at a final dilution of 1:100 (in PBS-T) on Nunc Maxisorp® plates coated with the peptide corresponding to the peptide-BSA conjugate used for injection, at a concentration of 1 μg/ml in PBS (100 μl/well). One hundred microliters of diluted sera were reacted on the coated plate for 30 to 60 min at room temperature, and unbound material was removed by washing three times with PBS-T. Anti-peptide antibodies were detected with peroxidase-labeled goat anti-mouse IgG (γ-specific), diluted 1:10000 in PBS-T (100 μl/well; Jackson ImmunoResearch Laboratories, Inc., West Grove, Pa., USA). Following 30-min incubation, the wells were washed five times with PBS-T to removed unbound material and 100 μl of substrate (TMB; Kirkegaard & Perry Laboratories, Inc., Gaithersburg, Md., USA) was added to each well. The reaction was allowed to proceed for 15 min in the dark and stopped by addition of 100 μl of TMB Stop Solution per well (Kirkegaard & Perry). Absorbance was determined at 450 nm.

[2] = system: live Wuhan (Influenza A/Wuhan/359/95, H3N2); test: ELISA for anti-Wuhan antibodies (mouse sera 1:100); assay type: in vivo, mice; details: for Absorbance values for individual sera tested on influenzavirus strain Wuhan, Pre: pre-bleed; for Anti-Wuhan Absorbance Day 42 (group average) / Anti-Wuhan Absorbance Pre-Bleed (group average): averaged results
[3] = system: IFN-γ induction in splenocytes; assay type: cell-based; details: mice immunized with peptide-BSA conjugates, 72 h in vitro treatment
live H3N2 virus = assay type: in vivo, cotton rats (Sigmodon hispidus); details: cotton rats; 100 μg IM on day 0 and day 28, in CFA or in PBS; sera day 0, 28, 42
[4] = system: Influenza H1N1, H3N2, and H5N1; details: in vivo
[5] = mice, 5 μg per injection, sera 1:100
[6] = mice, 20 μg per injection, sera 1:100
[7] = sera 1:100, dose per inject 5 μg
[8] = sera 1:100, dose per inject 20 μg
[9] = sera 1:100, dose per injection 5 μg
[10] = sera 1:100, dose per injection 20 μg

## GNLFIAP [Peptide 5910]
[1]; 5 μg per injection
  Average Absorbance Values of sera for tested peptides, Day 14: 0.113
  Average Absorbance Values of sera for tested peptides, Day 29: 0.140
  Average Absorbance Values of sera for tested peptides, Day 42: 0.318
  Average Absorbance Values of sera for tested peptides, Pre: 0.154
  Individual absorbancy values of sera for tested peptides, Pre: 0.100 and 0.110 and 0.097 and 0.308
  Individual absorbancy values of sera for tested peptides, Day 14: 0.089 and 0.090 and 0.086 and 0.186
  Individual absorbancy values of sera for tested peptides, Day 29: 0.099 and 0.226 and 0.085 and 0.149
  Individual absorbancy values of sera for tested peptides, Day 42: 0.123 and 0.306 and 0.680 and 0.162
[1]; 20 μg per injection
  Average Absorbance Values of sera for tested peptides, Day 14: 0.102
  Average Absorbance Values of sera for tested peptides, Day 29: 0.202
  Average Absorbance Values of sera for tested peptides, Day 42: 0.237
  Average Absorbance Values of sera for tested peptides, Pre: 0.083
  Individual absorbancy values of sera for tested peptides, Pre: 0.081 and 0.083 (2×) and 0.087
  Individual absorbancy values of sera for tested peptides, Day 14: 0.104 and 0.081 and 0.078 and 0.144
  Individual absorbancy values of sera for tested peptides, Day 29: 0.296 and 0.077 and 0.133 and 0.302
  Individual absorbancy values of sera for tested peptides, Day 42: 0.279 and 0.164 and 0.175 and 0.333
[2]; [5]
  Absorbance values for individual sera tested on influenzavirus strain Wuhan, Pre: 0.076 and 0.092 and 0.068 and 0.109
[2]; [6]
  Absorbance values for individual sera tested on influenzavirus strain Wuhan, Pre: 0.069 and 0.070 and 0.071 and 0.092
[2]; mice, conjugates at 5-μg and 20-μg doses
  antibody responses that bound to native influenza (whole H3 virus), day 42 vs before: good antibody responses
[2]; [7]
  Anti-Wuhan Absorbance Day 42 (individual mice): 0.449 and 0.341 and 0.288 and 0.088
  Anti-Wuhan Absorbance Pre-Bleed (individual mice): 0.076 and 0.092 and 0.068 and 0.109
[2]; [8]
  Anti-Wuhan Absorbance Day 42 (individual mice): 0.546 and 0.096 and 0.271 and 0.385
  Anti-Wuhan Absorbance Pre-Bleed (individual mice): 0.069 and 0.070 and 0.071 and 0.092
[2]; [9]
  Anti-Wuhan Absorbance Day 42 (group average): 0.291
  Anti-Wuhan Absorbance Pre-Bleed (group average): 0.086
[2]; [10]
  Anti-Wuhan Absorbance Day 42 (group average): 0.324
  Anti-Wuhan Absorbance Pre-Bleed (group average): 0.075
[3]
  IFN-γ response of spleen cell supernatants (in words): strongest IFN-γ response
[3]; listed as GNLFIAP
  IFN-γ response of spleen cell supernatants (in words): good IFN-γ response

## DWSGYSGSFVQHPELTGL [Peptide 5912]
[1]; 5 μg per injection
  Average Absorbance Values of sera for tested peptides, Day 14: 0.162
  Average Absorbance Values of sera for tested peptides, Day 29: 0.325
  Average Absorbance Values of sera for tested peptides, Day 42: 0.693
  Average Absorbance Values of sera for tested peptides, Pre: 0.130
  Individual absorbancy values of sera for tested peptides, Pre: 0.090 and 0.094 and 0.107 and 0.156
  Individual absorbancy values of sera for tested peptides, Day 14: 0.287 and 0.109 and 0.230 and 0.147
  Individual absorbancy values of sera for tested peptides, Day 29: 0.175 and 0.137 and 0.700 and 0.138
  Individual absorbancy values of sera for tested peptides, Day 42: 0.154 (2×) and 0.167 and 1.758
[1]; 20 μg per injection
  Average Absorbance Values of sera for tested peptides, Day 14: 0.130
  Average Absorbance Values of sera for tested peptides, Day 29: 0.123
  Average Absorbance Values of sera for tested peptides, Day 42: 0.155
  Average Absorbance Values of sera for tested peptides, Pre: 0.100
  Individual absorbancy values of sera for tested peptides, Pre: 0.100 and 0.098 and 0.090 and 0.123
  Individual absorbancy values of sera for tested peptides, Day 14: 0.091 and 0.082 and 0.103 and 0.088
  Individual absorbancy values of sera for tested peptides, Day 29: 0.098 and 0.146 and 0.099 and 0.096
  Individual absorbancy values of sera for tested peptides, Day 42: 0.155 and 0.189 and 0.168 and 0.111
[2]; [5]
  Absorbance values for individual sera tested on influenzavirus strain Wuhan, Pre: 0.063 and 0.060 and 0.062 and 0.083
[2]; [6]
  Absorbance values for individual sera tested on influenzavirus strain Wuhan, Pre: 0.077 and 0.084 and 0.057 and 0.086
[2]; [7]
  Anti-Wuhan Absorbance Day 42 (individual mice): 0.086 and 0.100 and 0.527 and 0.090
  Anti-Wuhan Absorbance Pre-Bleed (individual mice): 0.063 and 0.060 and 0.062 and 0.083
[2]; [8]
  Anti-Wuhan Absorbance Day 42 (individual mice): 0.132 and 0.431 and 0.093 and 0.068
  Anti-Wuhan Absorbance Pre-Bleed (individual mice): 0.077 and 0.084 and 0.057 and 0.086
[2]; [9]
  Anti-Wuhan Absorbance Day 42 (group average): 0.201
  Anti-Wuhan Absorbance Pre-Bleed (group average): 0.067
[2]; [10]
  Anti-Wuhan Absorbance Day 42 (group average): 0.181
  Anti-Wuhan Absorbance Pre-Bleed (group average): 0.076

## KSCINRCFYVELIRGR [Peptide 5914]
[1]; 5 μg per injection
  Average Absorbance Values of sera for tested peptides, Day 14: 0.128
  Average Absorbance Values of sera for tested peptides, Day 29: 0.181
  Average Absorbance Values of sera for tested peptides, Day 42: 0.284
  Average Absorbance Values of sera for tested peptides, Pre: 0.126
  Individual absorbancy values of sera for tested peptides, Pre: 0.110 and 0.133 and 0.136 and 0.126
  Individual absorbancy values of sera for tested peptides, Day 14: 0.117 and 0.123 and 0.156 and 0.118
  Individual absorbancy values of sera for tested peptides, Day 29: 0.248 and 0.136 and 0.219 and 0.121
  Individual absorbancy values of sera for tested peptides, Day 42: 0.388 and 0.264 and 0.357 and 0.127
[1]; 20 μg per injection
  Average Absorbance Values of sera for tested peptides, Day 14: 0.174
  Average Absorbance Values of sera for tested peptides, Day 29: 0.171
  Average Absorbance Values of sera for tested peptides, Day 42: 0.411
  Average Absorbance Values of sera for tested peptides, Pre: 0.146
  Individual absorbancy values of sera for tested peptides, Pre: 0.165 (2×) and 0.133 and 0.123
  Individual absorbancy values of sera for tested peptides, Day 14: 0.213 and 0.150 and 0.153 and 0.180
  Individual absorbancy values of sera for tested peptides, Day 29: 0.175 and 0.214 and 0.141 and 0.156
  Individual absorbancy values of sera for tested peptides, Day 42: 0.284 and 0.480 and 0.646 and 0.234
[2]; mice, 5 μg per injection, day 42, sera 1:100
  Absorbance values for individual sera tested on influenzavirus strain Wuhan, Day 42: 0.172
[2]; [5]
  Absorbance values for individual sera tested on influenzavirus strain Wuhan, Pre: 0.062 and 0.059 and 0.090 and 0.083
[2]; [6]
  Absorbance values for individual sera tested on influenzavirus strain Wuhan, Pre: 0.099 and 0.132 and 0.068 and 0.080
[2]; [7]
  Anti-Wuhan Absorbance Day 42 (individual mice): 0.176 and 0.329 and 0.239 and 0.096
  Anti-Wuhan Absorbance Pre-Bleed (individual mice): 0.062 and 0.059 and 0.090 and 0.083
[2]; [8]
  Anti-Wuhan Absorbance Day 42 (individual mice): 0.156 and 0.408 and 0.296 and 0.182
  Anti-Wuhan Absorbance Pre-Bleed (individual mice): 0.099 and 0.132 and 0.068 and 0.080
[2]; [9]
  Anti-Wuhan Absorbance Day 42 (group average): 0.210
  Anti-Wuhan Absorbance Pre-Bleed (group average): 0.073
[2]; [10]
  Anti-Wuhan Absorbance Day 42 (group average): 0.260
  Anti-Wuhan Absorbance Pre-Bleed (group average): 0.094

## MSLLTEVETPIRNEWGCRCNDSSD [Peptide M2e, reference compound]
Live H3N2 virus
  IgG titers to live H3N2 virus (ELISA): no particular advantage over small epitopic peptide fragments

## HYEECSCYDWSGYSGSFVQHPELTGLHYEECSCYQYIKANSKFIGITE [Peptide 5908]
[4]
  immune response against Influenza H1N1, H3N2, and H5N1: raised an immune response

B1: GNLFIAPGNLFIAPHYEECSCYHYEECSCYQYIKANSKFIGITEHYEECSCYTPIRNETPIRNE (peptide)
chain: GNLFIAPGNLFIAPHYEECSCYHYEECSCYQYIKANSKFIGITEHYEECSCYTPIRNETPIRNE
[4]
  immune response against Influenza H1N1, H3N2, and H5N1: raised an immune response
